In PubChem BioAssay (NCI) one finds GI50 and TGI data, which are given here for seven molecules.

SMILES strings stand for the structures.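 48-hour exposure; five concentrations; linearly interpolated endpoints. GI50 = concentration required for 50% inhibition of growth. Definition used: TGI = concentration required for complete inhibition of growth.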

Holding throughout (assay): DTP human tumour cell line panel, 48 h
The subject of test [1] is 786-0 renal.
For test [2], the system named is A549 NSCLC.
Test [3] has as its system COLO 205 colon.
Test [4] concerns HCT-15 colon.
In test [5] the test system is HOP-62 NSCLC.
The test system of test [6] is HS 578T breast.
Test [7] relates to OVCAR-8 ovarian.
Test [8] relates to SK-MEL-2 melanoma.
The subject of test [9] is T-47D breast.
The test system of test [10] is U251 CNS.

Take `O=C(/C=C/c1ccco1)c1cc(F)c(Cl)cc1Cl`: the GI50 in test [1] was 22.3 µM; in test [2] it was 22 µM; in [3], 18.6 µM; in test [4], 21.5 µM; in [5], 19.2 µM; in test [6] it was 13.7 µM. The GI50 is 24.5 µM in test [7], 18.1 µM in test [8], 18.1 µM in test [9] and 19.3 µM in test [10]. Further, the total growth inhibition concentration (TGI) is 55.4 µM in test [1]; 70.7 µM in test [2]; 38.4 µM in test [3]; 55.8 µM in [4]; 39.1 µM in test [5]; 39.6 µM in test [6]. Moreover, the concentration for total growth inhibition (TGI) in [7] is 68.3 µM; in test [8] it was 34.6 µM; in [9], 56.8 µM; in test [10], 46 µM.
In the case of `Cc1ccc(NC(=O)c2ccc(CN3CCN(C)CC3)cc2)cc1Nc1nccc(-c2cccnc2)n1`, the GI50 was 16.1 µM in [1]; 25.9 µM in [2]; 16.7 µM in test [3]; 16.2 µM in [4]; 21.9 µM in [5]; 15 µM in [6]. Moreover, the GI50 was 27 µM in [7], 22.1 µM in test [8], 16.9 µM in test [9] and 17.7 µM in [10]. Besides, the total growth inhibition concentration (TGI) came to 33.6 µM in [1]; 89.3 µM in test [2]; 40.5 µM in test [3]; 80.5 µM in test [4]; 47 µM in test [5]; 43.1 µM in test [6]. The TGI in test [7] is > 89.9 µM; in [8], 54.8 µM; in test [9] it was 49.6 µM; in test [10], 45.1 µM.
For the molecule `COc1ccc(N=Cc2c(O)ccc3c2oc2cc(Cl)c(O)c(Cl)c23)cc1`, the GI50 in test [1] was 19.2 µM; in [2], 14.5 µM; in [3], 16 µM; in test [4] it was 7.38 µM; in test [5] it was 14.3 µM; in test [6] it was 4.45 µM. Moreover, the GI50 in test [7] is 15 µM; in [8], 5.92 µM; in test [9], 7.65 µM; in test [10] it was 5.39 µM. The TGI in test [1] amounted to 52 µM; in test [2], 48.2 µM; in test [3], 33.2 µM; in test [4] it was 25.7 µM; in [5] it was 33.5 µM; in test [6] it was 23.1 µM. Also, the TGI was determined as 45.9 µM in test [7], 22.9 µM in [8], 46.4 µM in test [9] and 34.9 µM in [10].
`CCOC(=O)c1ccccc1OC(=O)NNc1ccccc1`: the GI50 in test [1] was 1.18 µM; in [2] it was 0.874 µM; in test [3], 2.45 µM; in test [4], 0.862 µM; in test [5], > 84.2 µM; in test [6], > 31.9 µM. Moreover, the GI50 was 9.19 µM in test [7], 0.892 µM in test [9] and > 35.6 µM in [10]. In addition, the TGI in [1], in [2], in test [3], in test [4], in test [5] and in test [6] was > 100 µM each time. Moreover, the concentration for total growth inhibition (TGI) in test [7] is > 100 µM; in test [8], > 29.3 µM; in test [9] it was > 100 µM; in [10], > 100 µM.
Turning to `C[C@]12CCc3nc(Nc4cccc(O)c4)sc3C1=CC[C@@H]1[C@@H]2CC[C@]2(C)/C(=N\NC(N)=S)CC[C@@H]12`, the GI50 is 1.44 µM in test [1]; 2.95 µM in test [2]; 1.91 µM in test [3]; 1.15 µM in test [4]; 1.86 µM in test [5]; 0.843 µM in [6]. Also, the GI50 in [7] was 2.57 µM; in test [8] it was 2.32 µM; in test [9], 1.83 µM; in test [10], 1.15 µM. Moreover, the concentration for total growth inhibition (TGI) was determined as 4.31 µM in test [1]; 11.4 µM in [2]; 3.61 µM in test [3]; 2.64 µM in test [4]; 4.07 µM in test [5]; 10.9 µM in [7]. Besides, the total growth inhibition concentration (TGI) in [8] was found to be 7.36 µM; in test [9] it was 4.41 µM; in test [10] it was 2.96 µM.
Regarding `CCOC(=O)[C@@H](C)C[C@H](Cc1ccccc1)NC(=O)c1nc([C@@H](C[C@H](C(C)C)N(C)C(=O)[C@@H](NC(=O)[C@H]2CCCCN2C)C(C)C)OC(C)=O)sc1CCOCc1ccccc1`, the GI50 in [1] is 0.08 µM; in [2] it was 0.101 µM; in test [3] it was 0.0522 µM; in test [4], 0.262 µM; in test [5] it was 0.226 µM; in test [6], 0.083 µM. The GI50 in test [7] is 0.216 µM; in [8], 0.0639 µM; in test [9], 0.0721 µM; in test [10] it was 0.0716 µM. For the same molecule, the TGI in test [1] was 1.59 µM; in test [2], 2.17 µM; in [3] it was 0.276 µM; in [4] it was 1.51 µM; in test [5], 2.91 µM; in test [6] it was 2.85 µM. The concentration for total growth inhibition (TGI) in test [7] was 2.08 µM; in test [8], 2.39 µM; in test [9], > 11.1 µM; in [10] it was 1.62 µM.
For the molecule `C[C@]12CC[C@@H]3c4cc(OC(F)F)c(O)cc4CC[C@H]3[C@@H]1CC[C@@H]2OS(N)(=O)=O`, the GI50 in [1] is 1.26 µM; in [2] it was 0.968 µM; in test [3], 1.1 µM; in test [4], 0.458 µM; in test [5], 0.693 µM; in [6] it was 0.475 µM. The GI50 in test [7] is 1.55 µM; in test [8], 0.88 µM; in test [9], 1.02 µM; in test [10], 0.549 µM. For the same molecule, the TGI is > 100 µM in [1]; > 100 µM in test [2]; > 40 µM in test [3]; 26.8 µM in [4]; 35.7 µM in [5]; 48.8 µM in test [6]. Moreover, the TGI in test [7] worked out at 68.1 µM; in [8] it was 55.8 µM; in [9], 50.7 µM; in [10], 19.5 µM.
